Source: patent US8048927B2 (Besins Healthcare Luxembourg, priority 2004, dated 2011)

What was measured:
[1] = percutaneous [^3H]-4-hydroxy tamoxifen delivery in breast cancer patients (Example 1)
Method: The patients received [^3H]-labeled drug applied directly on the affected breasts at specified intervals ranging from 12 hours to 7 days before surgery to excise diseased tissue. Breast tissue from three regions: the tumor, tissue immediately surrounding the tumor, and normal tissue, was excised and immediately frozen in liquid nitrogen. Additionally, plasma and urine samples were obtained at scheduled intervals and frozen until analysis.

[2] = system: benign breast disease; conditions: cited from earlier work
[3] = Group 1: PO tamoxifen 20 mg/day (10 mg b.i.d.), 3-4 weeks; cited from earlier work
[4] = Group 2 (0.5 mg/day gel): seventh day of treatment; Group 1 (oral tamoxifen): fifth day; cited from earlier work
[5] = system: rat liver; conditions: cited from earlier work
[6] = system: p53(−) normal human mammary epithelial cells; conditions: cited from earlier work
[7] = molecular target: T1, estrone sulphatase (Homo sapiens, UniProt P08842); conditions: mammary cancer cell lines; cited from earlier work
T1 construct: estrone sulphatase activity in mammary cancer cell lines; endogenous in cells
T1 sequence (P08842 22-583): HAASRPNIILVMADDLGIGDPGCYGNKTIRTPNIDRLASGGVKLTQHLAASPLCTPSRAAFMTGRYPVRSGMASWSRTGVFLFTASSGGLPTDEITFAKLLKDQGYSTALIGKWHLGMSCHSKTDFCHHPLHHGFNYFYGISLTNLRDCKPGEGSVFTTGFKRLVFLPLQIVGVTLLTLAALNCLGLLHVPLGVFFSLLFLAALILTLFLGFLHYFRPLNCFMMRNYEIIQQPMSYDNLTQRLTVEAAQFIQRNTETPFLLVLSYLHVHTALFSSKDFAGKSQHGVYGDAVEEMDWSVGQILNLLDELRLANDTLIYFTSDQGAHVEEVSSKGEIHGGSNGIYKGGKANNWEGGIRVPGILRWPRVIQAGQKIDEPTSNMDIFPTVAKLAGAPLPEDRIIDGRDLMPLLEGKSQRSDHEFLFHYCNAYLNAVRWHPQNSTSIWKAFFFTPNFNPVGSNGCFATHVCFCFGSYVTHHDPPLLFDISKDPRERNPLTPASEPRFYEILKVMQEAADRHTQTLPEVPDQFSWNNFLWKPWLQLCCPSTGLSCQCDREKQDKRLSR

SMILES | time of plateau of radioactivity in blood ([1]; percutaneous application) [days] | decrease of risk, adenosis ([2]; in vivo) [%] | decrease of risk, cyst ([2]; in vivo) [%] | decrease of risk, duct ectasia ([2]; in vivo) [%] | decrease of risk, fibrocystic disease ([2]; in vivo) [%] | decrease of risk, hyperplasia ([2]; in vivo) [%] | decrease of risk, metaplasia ([2]; in vivo) [%] | reduction of the risk of developing benign breast disease, overall ([2]; in vivo) [%] | reduction of the need for breast biopsies ([2]; women under 50) [%] | Normal Tissue concentration of 4-hydroxy tamoxifen, Mean ± SD [3] [pg/g] | Plasma concentration of 4-hydroxy tamoxifen, Day Pre-Surgery, Mean ± SD [3] [ng/mL] | Plasma concentration of 4-hydroxy tamoxifen, Day of Surgery, Mean ± SD [3] [ng/mL] | Tumor concentration of 4-hydroxy tamoxifen, Mean ± SD [3] [pg/g] | side effects reported by one person of the group [4] | retention in the breast ([1]; percutaneous application to the breast) | rat liver carcinogenicity [5] | initiation of apoptosis [6] | inhibitory effect on estrone sulphatase activity [7]
CC/C(=C(\c1ccccc1)c1ccc(OCCN(C)C)cc1)c1ccccc1 [[^3H]-tamoxifen] | 2 |  |  |  |  |  |  |  |  |  |  |  |  |  |  |  |  | 
CC/C(=C(\c1ccccc1)c1ccc(OCCN(C)C)cc1)c1ccccc1 [tamoxifen] |  | 41 | 34 | 28 | 33 | 40 | 49 | 28 | 41 | 10215 ± 2151 | 2.326 ± 0.585 | 2.317 ± 1.098 | 12453 ± 3751 | hot flashes and mild vaginitis | shorter and far weaker | potent rat liver carcinogen | initiates apoptosis | little or no effect
